pIC50: −log10 of the molar value. ≈ marks a conversion by molar mass, not a printed value. Calls of active or inactive are those of the source. The rule behind the calls is not given here.
Tests used:
[1] = Inhibition of Plasmodium falciparum AM1 using Leu-pNA as substrate preincubated for 10 mins
Aminopeptidase N = molecular target: T1, Aminopeptidase N (Sus scrofa, UniProt P15145); experiment: Inhibition of porcine kidney microsomal neutral aminopeptidase using Leu-pNA as substrate preincubated for 10 mins
T1 sequence (P15145 whole entry): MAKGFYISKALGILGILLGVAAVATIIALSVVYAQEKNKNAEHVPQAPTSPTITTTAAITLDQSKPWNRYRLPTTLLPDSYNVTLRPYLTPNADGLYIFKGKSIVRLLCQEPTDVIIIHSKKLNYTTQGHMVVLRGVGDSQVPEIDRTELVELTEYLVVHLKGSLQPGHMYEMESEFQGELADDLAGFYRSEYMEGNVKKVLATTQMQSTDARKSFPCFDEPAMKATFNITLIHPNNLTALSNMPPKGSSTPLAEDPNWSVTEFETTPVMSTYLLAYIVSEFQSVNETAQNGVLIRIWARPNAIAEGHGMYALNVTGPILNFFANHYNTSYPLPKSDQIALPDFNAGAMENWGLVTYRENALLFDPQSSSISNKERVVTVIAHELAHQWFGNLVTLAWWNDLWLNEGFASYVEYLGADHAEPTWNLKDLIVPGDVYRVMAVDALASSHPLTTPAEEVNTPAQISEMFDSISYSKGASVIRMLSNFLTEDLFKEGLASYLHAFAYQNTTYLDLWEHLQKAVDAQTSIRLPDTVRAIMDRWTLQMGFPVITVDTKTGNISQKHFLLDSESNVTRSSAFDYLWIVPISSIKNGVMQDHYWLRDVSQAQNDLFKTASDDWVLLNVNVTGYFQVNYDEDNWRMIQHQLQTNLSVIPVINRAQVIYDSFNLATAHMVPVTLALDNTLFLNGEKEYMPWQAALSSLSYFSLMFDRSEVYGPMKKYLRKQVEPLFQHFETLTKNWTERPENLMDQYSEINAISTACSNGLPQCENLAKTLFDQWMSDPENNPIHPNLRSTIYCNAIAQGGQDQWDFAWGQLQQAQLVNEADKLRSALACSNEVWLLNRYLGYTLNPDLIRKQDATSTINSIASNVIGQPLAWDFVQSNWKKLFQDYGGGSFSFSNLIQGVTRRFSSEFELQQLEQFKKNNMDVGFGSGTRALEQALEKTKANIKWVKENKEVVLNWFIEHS

Plasmodium falciparum [2] = experiment: microbe, parasite or virus in culture; conditions: 3D7, 72 h
Description: Antimalarial activity against Plasmodium falciparum 3D7 infected in human O positive erythrocytes under low oxygen atmosphere after 72 hrs by spectrophotometric analysis

MRC5 = experiment: Cytotoxicity against human MRC5 SV2 cells after 72 hrs by resazurin fluorimetric analysis; type: cell-based; conditions: MRC5, 72 h
Plasmodium falciparum [3] = experiment: microbe, parasite or virus in culture; conditions: K1, 72 h
Description: Antimalarial activity against Plasmodium falciparum K1 infected in human O positive erythrocytes under low oxygen atmosphere after 72 hrs by spectrophotometric analysis

Liver = experiment: Metabolic stability in mouse liver microsomes at 1 uM after 30 mins; type: ADME, Microsome; conditions: 0.5 h
[4] = Drug metabolism assessed as N-(4-Fluorobenzyl)-N'-hydroxy-2-[1-phenylmeth-(E)-ylidene]malonamide fromation through GSH-adduct at 1 uM up to 60 mins; conditions: 1 h
[5] = Elimination half life in CD1 mouse RBC at 50 mg/kg, ip; type: ADME, organism-based, Erythrocyte; design: dose 50 mg/kg, route intraperitoneal; conditions: red blood cells, read-out: beta t1/2 (converted)
[6] = AUC (0 to last) in CD1 mouse RBC at 50 mg/kg, ip; type: ADME, organism-based, Erythrocyte; design: dose 50 mg/kg, route intraperitoneal, time 0 - last; conditions: red blood cells
[7] = molecular target: Carbonic anhydrase 2 (Homo sapiens) (UniProt P00918); experiment: Inhibition of human erythrocyte carbonic anhydrase-2 assessed as hydrolysis of 4-nitrophenylacetate at 1 to 50 uM
[8] = Half life in human plasma; type: ADME, cell-free
[9] = Metabolic stability in CD1 mouse RBC assessed as N-(4-Fluorobenzyl)-N'-hydroxy-2-[1-phenylmeth-(E)-ylidene]malonamide fromation through GSH-adduct at 50 mg/kg, ip; type: ADME, organism-based, Erythrocyte; design: dose 50 mg/kg, route intraperitoneal; conditions: in vivo
[10] = AUC (0 to last) in CD1 mouse plasma at 50 mg/kg, ip; type: ADME, organism-based; design: time 0 - last, dose 50 mg/kg, route intraperitoneal
[11] = AUC (0 to infinity) in CD1 mouse RBC at 50 mg/kg, ip; type: ADME, organism-based, Erythrocyte; design: time infinity, dose 50 mg/kg, route intraperitoneal; conditions: in vivo
[12] = Elimination half life in CD1 mouse plasma at 50 mg/kg, ip; type: ADME, organism-based; design: dose 50 mg/kg, route intraperitoneal; conditions: read-out: beta t1/2 (converted)
[13] = AUC (0 to infinity) in CD1 mouse plasma at 50 mg/kg, ip; type: ADME, organism-based; design: time infinity, dose 50 mg/kg, route intraperitoneal
Plasma [14] = experiment: Tlast in CD1 mouse plasma at 50 mg/kg, ip; type: ADME, organism-based; design: dose 50 mg/kg, route intraperitoneal; conditions: in vivo
Plasma [15] = experiment: Metabolic stability in CD1 mouse plasma assessed as N-(4-Fluorobenzyl)-N'-hydroxy-2-[1-phenylmeth-(E)-ylidene]malonamide fromation through GSH-adduct at 50 mg/kg, ip; type: ADME, organism-based; design: dose 50 mg/kg, route intraperitoneal; conditions: in vivo
[16] = Half life in rat plasma; type: ADME, cell-free
[17] = Solubility of the compound in PBS at pH 7.4 after 24 hrs; type: physicochemical
[18] = Partition coefficient, log D of the compound in octanol-phosphate buffer at pH 7.4; type: physicochemical

pIC50 [1]	pIC50 (Aminopeptidase N)	pIC50 (Plasmodium falciparum [3])	SMILES	pIC50 (MRC5)	also measured
6.48	< 5.00	–	O=C(NO)/C(=C/c1ccccc1)C(=O)NCc1ccc(F)cc1	–	–
–	–	–	NC(CCc1ccccc1)P(=O)(O)CC(Cc1ccccc1)C(=O)O (centres undefined)	–	pIC50 (Plasmodium falciparum [2]): 4.62
7.25	< 5.00	4.30	CC(Cc1ccccc1)(C(=O)NO)C(=O)NCc1ccc(F)cc1 (centres undefined)	< 4.19	–
6.36	5.70	–	O=C(NO)/C(=C\c1ccccc1)C(=O)NCc1ccncc1	–	–
6.68	5.63	4.61	O=C(NO)C(Cc1ccccc1)C(=O)NCc1cccc(F)c1 (centres undefined)	< 4.19	–
–	–	–	CC(C)C[C@H](NC(=O)[C@@H](O)[C@H](N)Cc1ccccc1)C(=O)O [UBENIMEX]	–	pIC50 (Plasmodium falciparum [2]): 5.10
6.59	5.40	4.38	O=C(NO)C(Cc1ccc(F)cc1)C(=O)NCc1ccc(F)cc1 (centres undefined)	< 4.19	–
7.37	5.38	4.52	O=C(NO)/C(=C\c1ccc(F)cc1)C(=O)NCc1ccc(F)cc1	4.49	half-life [8]: > 24 h; half-life [16]: 3 h; logD [18]: 1.7; solubility at 24 h [17]: 190 µM (≈ 63.1 µg/mL)
6.51	5.88	4.44	O=C(NO)C(Cc1ccc(F)cc1)C(=O)NCc1ccccc1 (centres undefined)	< 4.19	–
6.90	< 5.00	–	O=C(NO)C(Cc1ccccc1)C(=O)NCc1ccccc1 (centres undefined)	–	–
6.59	5.65	4.42	O=C(NO)C(Cc1ccccc1)C(=O)NCc1ccccc1F (centres undefined)	< 4.19	–
5.98	5.34	< 4.19	O=C(NO)C(Cc1ccccc1)C(=O)NCc1ccncc1 (centres undefined)	< 4.19	–
7.16	5.62	–	O=C(NO)/C(=C\c1ccc(F)cc1)C(=O)NCc1ccccc1	–	–

SMILES	pIC50 [1]	pIC50 (Aminopeptidase N)	pIC50 (Plasmodium falciparum [3])	pIC50 (MRC5)	also measured
O=C(NO)/C(=C\c1ccccc1)C(=O)NCc1ccc(F)cc1	8.22	–	4.96	4.49	Stability (Liver): Stable; Drug metabolism [4]: Active; half-life [5]: 1.5 h; AUC(0-t) [6]: 90 µM·h; inhibition [7]: inactive; half-life [8]: > 24 h; Stability [9]: Stable; AUC(0-t) [10]: 66 µM·h; AUC [11]: 98 µM·h; half-life [12]: 1 h; AUC(0-inf) [13]: 68 µM·h; Tlast (Plasma [14]): 6 h; Stability (Plasma [15]): Stable
O=C(NO)C(Cc1ccccc1)C(=O)NCc1ccc(F)cc1 (centres undefined)	7.57	–	4.76	< 4.19	half-life [8]: > 24 h; half-life [16]: 0.8 h; solubility at 24 h [17]: > 200 µM

From ChEMBL document CHEMBL2176899, “Structure-activity relationships and blood distribution of antiplasmodial aminopeptidase-1 inhibitors” (J Med Chem, 2012)
